This is an account of results in patent US20080004272A1, “Compositions and methods for modulating gated ion channels” (PainCeptor Pharma Corporation, priority 2006, published 2008).

Where two headings read alike, the source gives them in different places.

Experiment [1] has as its target T1, ASIC1a (Homo sapiens, UniProt P78348).
T1 sequence (P78348 1-528): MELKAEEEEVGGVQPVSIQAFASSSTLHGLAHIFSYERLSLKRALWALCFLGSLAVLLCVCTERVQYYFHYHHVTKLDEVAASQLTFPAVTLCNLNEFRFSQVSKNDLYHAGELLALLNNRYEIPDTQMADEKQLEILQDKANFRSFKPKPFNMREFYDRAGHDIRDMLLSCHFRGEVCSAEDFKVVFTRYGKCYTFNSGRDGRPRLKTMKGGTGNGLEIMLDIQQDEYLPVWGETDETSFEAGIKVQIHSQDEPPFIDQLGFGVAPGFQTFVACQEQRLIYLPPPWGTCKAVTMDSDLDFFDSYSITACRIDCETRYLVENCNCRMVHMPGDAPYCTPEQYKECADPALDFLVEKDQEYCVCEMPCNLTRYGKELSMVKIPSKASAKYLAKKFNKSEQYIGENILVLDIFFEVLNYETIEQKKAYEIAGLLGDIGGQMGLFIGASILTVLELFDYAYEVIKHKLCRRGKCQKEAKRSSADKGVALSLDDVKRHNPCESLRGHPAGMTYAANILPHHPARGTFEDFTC
Description: Whole cell patch clamp in HEK293 cells transfected with hASIC1a. The arrangement: expressed in transfected cells; host or cells: Xenopus laevis oocytes (nuclear microinjection of expression vector such as pcDNA3). In kind it is cell-based. The method, then: Another example of an in vitro assessment method consists of using mammalian heterologous expression systems, which are known to the skilled in the art, and include a variety of mammalian cell lines such as COS, HEK, e.g., HEK293 and/or CHO, cells. Cell lines are transfected with gated ion channel(s) and used to perform electrophysiology as follows:
All experiments are performed at room temperature (20-25° C.) in voltage clamp using conventional whole cell patch clamp methods (Neher, E., et al. (1978) Pfluegers Arch 375:219-228).
The amplifier used is the EPC-9 (HEKA-electronics, Lambrect, Germany) run by a Macintosh G3 computer via an ITC-16 interface. Experimental conditions are set with the Pulse-software accompanying the amplifier. […]
Coverslips with the cells are transferred to a 15 μl experimental chamber mounted on the stage of an inverted microscope (IMT-2, Olympus) supplied with Nomarski optics. […] The cells are held at a holding voltage of −60 mV and at the start of each experiment the current is continuously measured for 45 s to ensure a stable baseline. […] Current amplitudes are measured at the peak of the responses, and effect of the compounds is calculated as the amplitude at compound equilibrium divided by the amplitude of the current evoked by the pulse just before the compound is included. […]
Background: Patch clamp records ionic current or voltage across a cell membrane.

The subject of experiment [2] is carrageenan-induced thermal hyperalgesia. Description: Carrageenan model, thermal hyperalgesia (Hargreaves' assay). In kind it is in vivo. The settings on record: rat, 10 mg/kg s.c. 30 min prior to carrageenan, tested 2, 3 and 4 h post. The protocol:
Acute inflammatory hyperalgesia is induced in rats by unilateral injection of […] of a 3% solution of 1-carrageenan into the plantar surface of the left hind paw 2-4 h prior to testing. Thermal nociceptive thresholds are determined according to the method described elsewhere (Hargreaves et al., 1988). Briefly, through the glass surface, a radiant heat source (8 V, 50 W projector bulb) is focused onto the plantar surface of the hind paw. The rat's paw-withdrawal latency to this stimulus is recorded to the nearest 0.1 s. Each latency score is an average of three trials, which are separated by at least 5 min. In all rats, both the injured and uninjured hind paws are similarly tested, allowing direct comparisons between inflamed and non-inflamed paws.
FIG. 5 illustrates the effect of Compound 203 (10 mg/kg s.c.) on the thermal hyperalgesia (observed in the Hargreaves' assay) resulting from an acute paw inflammation caused by the intraplantar injection of 150 μl of a 3% solution of λ-carrageenan. Compound 203 was given 30 min prior to carrageenan injection and thermal hyperalgesia was tested 2, 3, and 4 h post carrageenan injection.

What is called IC50 is the concentration that inhibits the measured activity by half. `CN1CCc2c(-c3ccccc3)cc(C#N)c(N)c2C1` [Compound 203, 8-Amino-2-methyl-5-phenyl-1,2,3,4-tetrahydro-isoquinoline-7-carbonitrile] displayed an IC50 in experiment [1] of 7.5 µM. Moreover, in experiment [2], the “Effect on thermal hyperalgesia” value is recorded as “reduced the thermal hyperalgesia to level not significant to the control paw”. `COc1ccc(F)cc1-c1cc(C#N)c(N)c2c1CCN(C)C2` [Compound 206, 8-Amino-5-(5-fluoro-2-methoxy-phenyl)-2-methyl-1,2,3,4-tetrahydro-isoquinoline-7-carbonitrile]: the concentration for half-maximal inhibition (IC50) in experiment [1] (HEK293 cells, whole cell patch clamp, six point dose-response, read-out: IC50, inhibition of acid-induced hASIC1a activity) came out at 28 µM.
